For data set [1], the system named is acetylated tubulin. Nature of the data set: Western blot of acetylated tubulin in cells. The format is cell-based. The following applies: increasing doses. The procedure: (§1) Protein samples for Western blot analysis were separated by 12% SDS-PAGE gels. Following separation on the gel, proteins were transferred using electrophoresis onto a nitrocellulose membrane and blocked at room temperature shaking in 5% milk (w/v) in TBS containing 0.5% Tween-20 (TBS-T). Membranes were incubated overnight at 4° C. with primary antibody. HRP tagged secondary antibodies were diluted in TBS-T/5% milk for 1 hr. Antibody reactive bands were detected with LAS-3000, Fujifilm. Fluorescent secondary antibodies were diluted 1:10000 in TBS-T/5% milk for 1 hour. Antibody reactive bands were detected with the Odyssey® infrared imaging system (LI-COR Biosciences). IRDye® 680LT and 800CW-Infrared Dye coupled anti-rabbit or anti-mouse (LI-COR Biosciences).
In general terms: A western blot detects proteins with antibodies after separation by electrophoresis.

For data set [2], the system named is Histone 4 (H4). Nature of the data set: Acetylation of Histone 4 in cells. The format is cell-based. As for the experimental part:
as §1

For data set [3], the system named is BT549 cells. Nature of the data set: Migration and invasion assays (Boyden chamber). The format is cell-based. Conditions: BT549, 30 μM. The procedure: (§2) Cell migration and invasion experiments were performed using the Boyden Chamber Assay (Corning, CLS3464). 500,000 cells were seeded in serum free RPMI media (Thermo Fisher Scientific, 118757093) in the upper chamber and RPMI media containing 10% FBS (Sigma, F2442), was placed in the lower chamber. For invasion experiments the upper chamber was coated with Matrigel™ (Corning). […] Following 24 hrs (migration experiments) or 48 hrs (invasion experiments) treatment cells were stained with 0.5% crystal violet.

The test system of data set [4] is MDA231 cells. Nature of the data set: Migration and invasion assays (Boyden chamber). The following applies: MDA231, 30 μM. In kind it is cell-based. As for the experimental part: as §2
The subject of data set [5] is MDA231. Nature of the data set: 3D spheroid formation in Matrigel. The following applies: MDA231, 30 μM. In kind it is cell-based. As for the experimental part:
Individual wells of a 6 well plate was coated with Matrigel™ (Corning) and placed in an incubator at 37° C. for 30 min. 50,000 cells/ml were resuspended in RPMI supplemented with 2% Matrigel™ Cells were placed in Matrigel™ coated wells for 30 min at 37° C., after which RMPI supplemented with 2% Matrigel™ was added to the cultures. […] Cells were maintained in culture for 7 days in an incubator at 37° C., 5% CO2 and cultures imaged every 24 hrs with Nikon ECLIPSE TE300.

The format of data set [6] is in vivo. The following applies: 50 mg/kg, while on treatment.
In data set [7] the test system is aldolase. Nature of the data set: Aldolase activity assay. The format is cell-based. The procedure:
(§3) The activity assay was performed as per the manufacturer's instructions (Aldolase: Biovision, K665, GAPDH: Sigma, MAK277). Values were normalized to protein concentrations and fold change was calculated relative to DMSO.

The subject of data set [8] is GAPDH. Nature of the data set: GAPDH activity assay. The format is cell-based. The procedure: as §3
In data set [9] the test system is aldolase. Nature of the data set: Immunoprecipitation with acetyl beads. The format is cell-based. The following applies: 10 μM, 24 hr treatment. As for the experimental part:
Cell lysates were prepared in lysis buffer (50 mM Tris-HCL PH 7.4, 150 mM NACL, 1% Triton x100, 1 mM EDTA and protease inhibitors). Protein was quantified and 500 μg of protein was added to 20 μl of A-agarose beads (Pierce, 20333) and allowed to rotate for 1 hr at 4° C. and 3000 rpm. Proteins were centrifuged for 3 minutes at 3000 rpm at 4° C. Supernatant was added to 500 μl of lysis buffer, […] pan-specific anti-acetylated lysine beads (Immunechem, ICP0388) or control agarose beads, and made up to 1 ml with dH2O. Samples were rotated overnight at 4° C. at 3000 rpm. Samples were washed with lysis buffer and were resuspended in 30 μl of 2×IP Dye with BME and boiled and ran out on 12% SDS-PAGE gel.

Data set [10] relates to MCF10a cells. Nature of the data set: Extracellular flux assay (ECAR, glycolysis). In kind it is cell-based. Conditions: 10 μM, 24 hr. As for the experimental part:
(§4) The bioenergetic function of cells in response to drug treatments was determined using a Seahorse Bioscience XF96 Extracellular Flux Analyzer (Seahorse Bioscience). Cells were seeded in specialized V7 Seahorse tissue culture plates (Agilent, 102601-100) for 24 hrs. […] One hr prior to experiment, cells were washed and changed to XF Base medium (Agilent, 10353-100) adjusted to pH 7.4. For OXPHOS experiments medium was supplemented with pyruvate (1 mM), L-glutamine (2 mM) and glucose (10 mM). […] For glycolysis experiments medium was supplemented with L-glutamine (1 mM). […] For all analysis values were normalized to protein concentration before baseline measurements were subtracted. The fold change was calculated relative to DMSO.

Data set [11] has as its system MDA231 cells. Nature of the data set: Extracellular flux assay (ECAR, glycolysis). In kind it is cell-based. Conditions: MDA231, 10 μM, 24 hr. The procedure:
as §4

Data set [12] deals with 4T1 cell line. Nature of the data set: Extracellular flux assay (ECAR, glycolysis). The format is cell-based, mouse. The following applies: 4T1, 24 hrs. As for the experimental part:
as §4

Data set [13] relates to MDA231 cells. Nature of the data set: U-13C6-glucose stable isotope tracing, GC-MS. In kind it is cell-based. The following applies: MDA231, 10 μM, 24 hrs. The procedure: Cells were seeded in 12-well tissue culture plates and left to adhere overnight. […] Following treatment, media was removed and cells were washed with 1×PBS before adding basic RPMI (Thermo Fisher Scientific, 11879020) supplemented with dialyzed FBS (Gibico 26400044) and either 10 mM of [U]-^13C6 labelled glucose (Cambridge Isotopes CLM-1396) for 30 minutes or tracing media containing 10 mM 1,2-^13C labelled glucose (Cambridge Isotopes CLM-504) for 12 h. Cellular metabolites were extracted after a brief wash with 0.9% ice-cold saline solution using a methanol/water/chloroform extraction method, as previously described (48).
(§5) Metabolite derivitzation using MOX-tBDMS was conducted as previously described (49).
(§6) Derivatized samples were analyzed by GC-MS using a DB-35MS column (30 m×0.25 mm i.d.×0.25 μm) installed in an Agilent 7890B gas chromatograph (GC) interfaced with an Agilent 5977B mass spectrometer as previously described (50) and corrected for natural abundance using in-house algorithms adapted from (51).

Data set [14] concerns MDA231 cells. Nature of the data set: Metabolite secretion, GC-MS. In kind it is cell-based. Conditions: MDA231, 10 μM, 24 hrs. As for the experimental part: Media was centrifuged at 1,000×g to pellet cell debris and 5 μL of supernatant was extracted in 80% ice-cold methanol mixture containing isotope-labeled internal standards for lactate (Cayman Chemicals CLM-1579), and pyruvate (Cayman Chemicals CLM-2440) and evaporated to dryness.
as §5, §6

Data set [15] deals with mitochondrial membrane potential. Nature of the data set: Mitochondrial membrane potential (TMRE). The format is cell-based. The following applies: 10 μM. The procedure: Apoptosis was assessed by Annexin V/propidium iodide (Biolegend, 640906, Sigma P4170) staining using LSRII Biosciences, Facscanto. Cell viability was detected by CellTiter-Glo® (My Bio, G3582) according to the manufacture's protocol. Mitochondrial membrane potential was measured by adding Tetramethylrhodamine, ethyl ester (TMRE) (Biosciences, T669) at 20 nM for 30 minutes at 37° C. and assessed by flow cytometry with FACS CANTO II.

Data set [16] concerns BT549 cells. Nature of the data set: Extracellular flux assay (OCR). In kind it is cell-based. Conditions: BT549, 10 μM. The procedure: as §4
The subject of data set [17] is MDA-231 cells. Nature of the data set: Extracellular flux assay (OCR). The format is cell-based. Conditions: MDA-231, 10 μM. As for the experimental part: as §4
The test system of data set [18] is 4T1 tumors. Nature of the data set: Tumor metabolites by GC-MS, 4T1 syngeneic breast cancer model. The format is in vivo, mouse. The following applies: 4T1 model. The procedure:
Following 7 or 14 days treatment mice was fasted for 6-8 h prior to euthanasia and tumor harvest. Tumor metabolites were extracted in methanol/water/chloroform using the Qiagen TissueLyser LT, evaporated to dryness and resuspended in 80% methanol. The equivalent volume for 5 mg of tissue was further extracted in 80% ice-cold methanol mixture containing isotope-labeled standards for lactate (Cayman Chemicals CLM-1579), and pyruvate (Cayman Chemicals CLM-2440) and evaporated to dryness.
as §5, §6

In data set [19] the test system is 4T1 tumors. Nature of the data set: 4T1 syngeneic breast mouse model. The following applies: 50 mg/kg, two weeks, 4T1 model.
Data set [20] has as its system HDAC proteins (HDAC1-9). Nature of the data set: HDAC inhibitory assay, isozyme panel. Conditions: in vitro HDAC inhibitor screen.
The subject of data set [21] is MMTV-pyMT tumors. Nature of the data set: MMTV-pyMT genetic breast mouse model. Conditions: 50 mg/kg, two weeks.

SMILES strings stand for the structures. “Also recorded” adds a separate entry of the source.

For `O=C(CSC1=NC2CCCCC2N1)N1CCOCC1` (stereo not drawn) [BAS-2], the acetylated tubulin level entry in [1] is “increase in the acetylated tubulin”. Also, the “acetylation of Histone 4 (H4)” value in data set [2] is recorded as “did not cause an increase in acetylation of Histone 4”. For the same molecule, the “cell migration and invasion” value in data set [3] was “significant reduction in both cell migration and invasion”; in data set [4], “significant reduction in both cell migration and invasion”. For the same molecule, the 3D spheroid formation result in data set [5] was “reduction in 3D spheroid formation”. Moreover, in data set [6], the “toxicity as assessed by weight of the mice” value is on record as “did not detect any overt evidence of toxicity”. In addition, the aldolase enzymatic activity entry in data set [7] (BT-549 cells) is reported as “dose-dependent significant reduction in aldolase enzymatic activity”; in data set [7] (MDA231 cells, 24 hrs), “dose-dependent significant reduction in aldolase enzymatic activity”. Besides, the GAPDH activity entry in data set [8] (BT-549) and in data set [8] (MDA-231) was “dose dependent reduction in GAPDH activity” each time. In addition, the acetylation of aldolase result in [9] is reported as “increased the acetylation of aldolase”. Further, in data set [10], the “glycolysis and glycolytic capacity (ECAR)” value was “did not affect the glycolysis or glycolytic capacity”. The “glycolytic capacity (ECAR)” value in [11] is “reduced the glycolytic capacity”. Moreover, the “glycolysis and glycolytic flux” value in data set [12] was “decrease in glycolysis and glycolytic flux”. Besides, the “carbon incorporation from glucose into PEP, 3PG, lactate and pyruvate” value in data set [13] was “significant reduction in carbon incorporation from glucose”. The “secretion of lactate and pyruvate” value in data set [14] is “significant reduction in the secretion of lactate and pyruvate”. The mitochondrial membrane potential result in data set [15] is “no loss of mitochondrial membrane potential”. Moreover, the “OCR, basal respiration and ATP production” value in data set [16] and in data set [17] was “did not observe any significant changes in OCR” in each case. For the same molecule, the intratumoral lactate result in data set [18] is recorded as “trend towards decreased intratumoral lactate”. Also, the intratumoral pyruvate levels entry in [18] is recorded as “significant reduction in intratumoral pyruvate levels”. Moreover, the “tumor weight and tumor volume” value in data set [19] is “reduction in tumor weight and tumor volume; also recorded: reduce tumor volume and weight”. Also, the HDAC isozymes inhibited result in data set [20] is given as “inhibited only the isozyme HDAC6”. Besides, in data set [21], the tumor volume result is given as “reduction in tumor volume”.

The values above are taken from patent publication US20250368608A1, “SELECTIVE HDAC6 INHIBITOR” (ROYAL COLLEGE OF SURGEONS IN IRELAND, priority 2021, published 2025).
